From patent US20240336588A1, “COMPOSITIONS AND METHODS FOR ANTIOXIDANT AND ANTI-INFLAMMATORY THERAPEUTICS” (AVANTI BIOSCIENCES INC., priority 2021, published 2024)
pIC50: −log10 of the molar value.

Molecular target: DYRK1A (HT-497, 6×His tagged rat truncated DYRK1A isoform X1 residues 1-497) (Rattus norvegicus (Rat), UniProt Q63470)
Experiment: DYRK1A ELISA assay (HT-PRD phosphorylation)
Format: biochemical
Conditions: 100 µM ATP, 5 ng HT-497, 30 min at 30° C.
Experimental: Compounds of Table 1, above, were examined in vitro for activity against DYRK1A, DYRK1B, DYRK2 via an ELISA assay.
DYRK1A assay. […] After blocking, wells were washed extensively with dilution buffer before subjecting to phosphorylation. […] At the end point, wells were washed with ˜350 μl dilution buffer three times to terminate the reaction. […] Each point was run in quadruplicate with DMSO present in all assays at 0.2% final concentration. […] HT-PRD phosphorylation was subsequently determined by the sandwich antibody staining protocol, first with 100 μl mouse mAb 3D3 specific for detecting DYRK1A-phosphorylated PRD (60 min at room temperature) then with 100 μl alkaline phosphatase (AP)-linked anti-mouse secondary antibody (60 min at room temperature), followed by colorimetric reaction with 100 μl PNPP solution (PNPP substrate tablet, Thermo Fisher). […] The readings were then recorded for subsequent IC50 calculation. The DYRK1A assay protocol can also support DYRK1B and DYRK2 phosphorylation reactions in the enzyme concentration-dependent manner; therefore, the method was adapted for measuring the activity of candidate compounds against DYRK1B and DYRK2. For DYRK2, the reactions were performed as described above with 6 ng HT-DYRK2 (6×His tagged full-length human DYRK2 isoform 1). For DYRK1B, the assays were also similarly conducted but with 70 ng GST-DYRK1B (glutathione S-transferase tagged full length human DYRK1B isoform p65) and an extended kinase reaction time of 60 min.
Dilution factors for both mAb 3D3 and secondary antibody were pre-determined for each batch of antibody to ensure that neither antibody was limiting in the assay.
Data transformation, calculation, plotting, curve fitting, and IC 50 calculation were performed in KaleidaGraph (http://www.synergy.com/wordpress_650164087; Mac version 4.1). Data was corrected for background (readings from wells with only PNPP) before subsequent manipulations. […] The resulting residual activity was then plotted against its corresponding inhibitor concentrations in semi-log graph and the plot was fit to the sigmoidal equation, y=a+(b−a)/(1+(x/c)^d), for IC50 calculation.

Q: With `O=C(O[C@@H]1Cc2c(O)cc(O)cc2O[C@H]1c1cc(O)c(O)cc1F)c1cc(O)c(O)c(O)c1` [Compound 45, (2S,3R)-2-(2-fluoro-4,5-dihydroxyphenyl)-5,7-dihydroxychroman-3-yl 3,4,5-trihydroxybenzoate] as the compound, how does the pIC50 read?
A: < 7.00

Q: `CCCCCC(=O)Oc1cc(O)c2c(c1)O[C@H](c1cc(O)c(O)c(O)c1)[C@H](OC(=O)c1cc(O)c(O)c(O)c1)C2` [Compound 71, (2R,3R)-7-(hexanoyloxy)-5-hydroxy-2-(3,4,5-trihydroxyphenyl)chroman-3-yl 3,4,5-trihydroxybenzoate] was tested. Which pIC50 did it give?
A: < 7.00

Q: `O=C(O[C@@H]1Cc2c(O)cc(O)cc2O[C@H]1c1cc(O)c(O)cc1F)c1cc(O)c(O)c(O)c1F` [Compound 48, (2S,3R)-2-(2-fluoro-4,5-dihydroxyphenyl)-5,7-dihydroxychroman-3-yl 2-fluoro-3,4,5-trihydroxybenzoate] was tested. Which pIC50 did it give?
A: < 7.00

Q: With `O=C(O[C@@H]1Cc2c(O)cc(O)cc2O[C@H]1c1cc(O)c(O)c(O)c1)c1ccc(O)c(O)c1O` [Compound 38, (2S,3R)-5,7-dihydroxy-2-(3,4,5-trihydroxyphenyl)chroman-3-yl 2,3,4-trihydroxybenzoate] as the compound, how does the pIC50 read?
A: < 7.00

Q: With `O=C(O[C@@H]1Cc2ccccc2O[C@H]1c1cc(O)c(O)c(O)c1)c1cc(O)c(O)c(O)c1` [Compound 39, (2S,3R)-2-(3,4,5-trihydroxyphenyl)chroman-3-yl 3,4,5-trihydroxybenzoate] as the compound, how does the pIC50 read?
A: < 7.00

Q: With `O=C(O[C@@H]1Cc2c(O)cc(O)cc2O[C@@H]1c1ccc(O)c(O)c1)c1cc(O)c(O)c(O)c1` [Compound 6, (2R,3R)-2-(3,4-dihydroxyphenyl)-5,7-dihydroxychroman-3-yl 3,4,5-trihydroxybenzoate] as the compound, how does the pIC50 read?
A: < 7.00

Q: With `O=C(N[C@H]1Cc2c(O)cc(O)cc2O[C@@H]1c1cc(O)c(O)c(O)c1)c1ccc(O)cc1` [Compound 16, N-((2R,3S)-5,7-dihydroxy-2-(3,4,5-trihydroxyphenyl)chroman-3-yl)-4-hydroxybenzamide] as the compound, how does the pIC50 read?
A: < 6.00

Q: With `CCNC(=O)Oc1c(O)cc([C@H]2Oc3cc(O)cc(O)c3C[C@H]2OC(=O)c2cc(O)c(O)c(O)c2)cc1O` [Compound 72, (2R,3R)-2-(4-((ethylcarbamoyl)oxy)-3,5-dihydroxyphenyl)-5,7-dihydroxychroman-3-yl 3,4,5-trihydroxybenzoate] as the compound, how does the pIC50 read?
A: < 7.00

Q: `O=C(O[C@@H]1Cc2c(O)cc(O)cc2O[C@H]1c1cc(O)c(O)c(O)c1)c1cc(O)c(O)cc1F` [Compound 41, (2S,3R)-5,7-dihydroxy-2-(3,4,5-trihydroxyphenyl)chroman-3-yl 2-fluoro-4,5-dihydroxybenzoate] was tested. Which pIC50 did it give?
A: < 7.00

Q: How did the pIC50 turn out when `COc1cc(C(=O)O[C@@H]2Cc3c(O)cc(O)cc3O[C@@H]2c2cc(O)c(O)c(O)c2)cc(O)c1O` [Compound 8, (2R,3R)-5,7-dihydroxy-2-(3,4,5-trihydroxyphenyl)chroman-3-yl 3,4-dihydroxy-5-methoxybenzoate] was run?
A: < 7.00

Q: How did the pIC50 turn out when `O=C(O[C@@H]1Cc2cccc(O)c2C[C@H]1c1cc(O)c(O)c(O)c1)c1cc(O)c(O)c(O)c1` [Compound 33, (2R,3S)-5-hydroxy-3-(3,4,5-trihydroxyphenyl)-1,2,3,4-tetrahydronaphthalen-2-yl 3,4,5-trihydroxybenzoate] was run?
A: < 7.00

Q: With `O=C(N[C@H]1Cc2c(O)cc(O)cc2O[C@@H]1c1cc(O)c(O)c(O)c1)c1cc(O)c(O)c(O)c1` [Compound 9, N-((2R,3S)-5,7-dihydroxy-2-(3,4,5-trihydroxyphenyl)chroman-3-yl)-3,4,5-trihydroxybenzamide] as the compound, how does the pIC50 read?
A: < 7.00

Q: How did the pIC50 turn out when `O=C(O[C@H]1Cc2c(O)cc(O)cc2O[C@@H]1c1cc(O)c(O)c(O)c1)c1ccc(O)c(O)c1` [Compound 19, (2R,3S)-5,7-dihydroxy-2-(3,4,5-trihydroxyphenyl)chroman-3-yl 3,4-dihydroxybenzoate] was run?
A: < 7.00

Q: With `COc1cc([C@@H]2Oc3cc(O)cc(O)c3C[C@H]2OC(=O)c2cc(O)c(O)c(O)c2F)cc(O)c1O` [Compound 49, (2S,3R)-2-(3,4-dihydroxy-5-methoxyphenyl)-5,7-dihydroxychroman-3-yl 2-fluoro-3,4,5-trihydroxybenzoate] as the compound, how does the pIC50 read?
A: < 7.00
